Experimental data: the NIST ThermoML archive (doi:10.1021/acs.jced.6b00221)
± gives the expanded uncertainty stated by the source.

Columns and labels:
[1] = Liquid, Ebulliometric method (Recirculating still)
[2] = Boiling temperature at pressure P; conditions: Liquid, Ebulliometric method (Recirculating still)

CCOC(C)=O [ethyl acetate]
Conditions	Boiling temperature at pressure P [°C]	vapor or sublimation pressure [kPa]
[1], 330.41 K	–	50 ± 0.3
[1], 349.7 K	–	100 ± 0.3
[1], 362.48 K	–	150 ± 0.3
[2], 54.99 kPa	59.67 ± 0.19	–
[2], 59.98 kPa	62.01 ± 0.18	–
[2], 70 kPa	66.27 ± 0.16	–
[2], 75 kPa	67.77 ± 0.15	–
[2], 80 kPa	70.03 ± 0.16	–
[2], 84.99 kPa	71.78 ± 0.14	–
[2], 89.91 kPa	73.43 ± 0.13	–
[2], 95.01 kPa	75.1 ± 0.13	–
[2], 101.33 kPa	77.01 ± 0.13	–
[2], 104.99 kPa	78.11 ± 0.12	–
[2], 109.98 kPa	79.52 ± 0.11	–
[2], 119.9 kPa	82.21 ± 0.11	–
[2], 124.98 kPa	83.47 ± 0.11	–
[2], 129.93 kPa	84.71 ± 0.1	–
[2], 134.95 kPa	85.93 ± 0.1	–
[2], 139.96 kPa	87.09 ± 0.1	–
[2], 149.95 kPa	89.33 ± 0.1	–
[2], 154.97 kPa	90.41 ± 0.09	–
[2], 159.96 kPa	91.5 ± 0.09	–
[2], 164.99 kPa	92.49 ± 0.09	–
[2], 174.99 kPa	94.46 ± 0.09	–
[2], 180 kPa	95.43 ± 0.08	–
[2], 185 kPa	96.4 ± 0.08	–

CC(=O)OCCC(C)C [3-methylbutyl ethanoate]
Conditions	Boiling temperature at pressure P [°C]	vapor or sublimation pressure [kPa]
[1], 413.99 K	–	100 ± 0.3
[2], 20 kPa	92.14 ± 0.43	–
[2], 29.98 kPa	102.91 ± 0.38	–
[2], 40.01 kPa	111.16 ± 0.3	–
[2], 49.99 kPa	117.92 ± 0.25	–
[2], 60 kPa	123.61 ± 0.21	–
[2], 70 kPa	128.57 ± 0.19	–
[2], 80.01 kPa	133.03 ± 0.17	–
[2], 90 kPa	137.09 ± 0.16	–
[2], 100.01 kPa	140.8 ± 0.14	–
[2], 110 kPa	144.00 ± 0.14	–
[2], 119.99 kPa	147.28 ± 0.13	–
[2], 130 kPa	150.31 ± 0.12	–
[2], 139.99 kPa	153.18 ± 0.12	–
[2], 149.99 kPa	155.90 ± 0.11	–
[2], 160.01 kPa	158.46 ± 0.11	–

CC(=O)OCC(C)C [2-methylpropyl ethanoate]
Conditions	Boiling temperature at pressure P [°C]	vapor or sublimation pressure [kPa]
[1], 367.51 K	–	50 ± 0.3
[1], 388.93 K	–	100 ± 0.4
[1], 389.37 K	–	100 ± 0.4
[1], 403.22 K	–	150 ± 0.4
[1], 403.64 K	–	150 ± 0.4
[2], 39.99 kPa	88 ± 0.26	–
[2], 49.98 kPa	94.26 ± 0.24	–
[2], 59.99 kPa	99.74 ± 0.21	–
[2], 70 kPa	104.24 ± 0.18	–
[2], 80 kPa	108.43 ± 0.18	–
[2], 90 kPa	112.39 ± 0.17	–
[2], 100 kPa	116.22 ± 0.15	–
[2], 110 kPa	119.20 ± 0.14	–
[2], 120 kPa	122.11 ± 0.14	–
[2], 130 kPa	125.01 ± 0.13	–
[2], 140 kPa	127.69 ± 0.13	–
[2], 150 kPa	130.49 ± 0.14	–
